“And” between values parts separate entries of the source, which are not always exact repeats. Equal values may be shown once.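 These data come from cells grown in 96-well plates and exposed to compound for 48 hours at five concentrations. GI50 is the concentration that inhibits growth by half. Definition used: TGI = concentration required for complete inhibition of growth.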
Experiments:
Test in all cases: DTP human tumour cell line panel, 48 h
BT-549 breast = test system: BT-549 breast
COLO 205 colon = test system: COLO 205 colon
KM12 colon = test system: KM12 colon
MDA-MB-435 = test system: MDA-MB-435
SF-268 CNS = test system: SF-268 CNS
HOP-92 NSCLC = test system: HOP-92 NSCLC
SK-MEL-5 melanoma = test system: SK-MEL-5 melanoma
MDA-N = test system: MDA-N
LOX IMVI melanoma = test system: LOX IMVI melanoma
SN12C renal = test system: SN12C renal

Structure (SMILES)	TGI (BT-549 breast) [µM]	TGI (COLO 205 colon)	TGI (KM12 colon) [µM]	TGI (MDA-MB-435) [µM]	TGI (SF-268 CNS) [µM]	TGI (HOP-92 NSCLC) [µM]	TGI (SK-MEL-5 melanoma) [µM]	TGI (MDA-N) [µM]	TGI (LOX IMVI melanoma) [µM]	TGI (SN12C renal) [µM]	GI50 (SN12C renal) [µM]	GI50 (COLO 205 colon) [µM]
Cc1cc(-c2[nH]c(C(=O)O)cc2I)on1	> 100	> 100 µM	> 100	> 100	> 100	> 100	> 100	> 100	–	–	–	–
O=c1/c(=C\c2ccccc2)sc2n1C(c1ccccc1)C1(O)CCCCC1N=2 (centres undefined)	> 100	–	–	> 100	> 100	–	> 100	> 100	> 100	> 100	–	–
C=CCOc1ccccc1N=N/C(C#N)=N\Nc1ccccc1OCC=C	> 100	> 100 µM	> 100	> 100	> 100	> 100	> 100	94.7	> 100	> 100	–	–
O=C1C(F)=CC(COC(c2ccccc2)(c2ccccc2)c2ccccc2)OC1n1cc(F)c(=O)[nH]c1=O (centres undefined)	4.38	> 21.5 µM	7.72	3.18	12.6	5.52	3.22	3.38	3.54	4.29	–	–
FC(F)(F)c1ccccc1N1CCN(c2nc(-c3cccs3)nc3ccc(Br)cc23)CC1	> 100	65.1 µM	83.7	63.3	> 100	–	30.9	–	> 100	> 100	–	–
Cc1ccc(OCC2OC(n3cnc4c(N(C)C)nc(Br)nc43)CC2Oc2ccc(C)cc2)cc1 (centres undefined)	> 100	> 100 µM	> 100	> 100	> 100	> 100	> 100	> 100	> 100	> 100	–	–
Cc1c2c(cc3c1[nH]c1ccccc13)C=NCC2	–	22.4 µM	27.8	–	49.6	16.4	12.7	–	36.6	62.6	–	–
NC(=O)c1nnc2cc(F)ccc2c1N	> 100	> 100 µM	> 100	> 100	> 100	–	> 100	> 100	> 100	> 100	–	–
NCCCn1c2ccccc2c2c3c(c4c(c21)CCC(O)CC4)C(=O)NC3=O (centres undefined)	20.2	–	10.7	13.6	4.43	12.9	16.5	–	2.92	13.6	–	–
COc1cc2c(c(OC)c1OC)-c1ccc(SC)c(=O)cc1[C@@H](OC(C)=O)CC2	> 100	> 100 µM	> 48.5	–	25.1	> 100	–	–	> 100	> 100	–	–
CCC1C(c2cccc(OC)c2O)c2cc3c(cc2OC1N1CCCC1)OCO3 (centres undefined)	–	–	50.8	15.9	58.9	–	22.8	19.7	84.6	38.3	–	–
CN(C(=O)Cc1ccc(Cl)c(Cl)c1)[C@H]1CCCC[C@@H]1[N+]1(C)CCCC1	> 100	> 100 µM	> 100	> 100	> 100	–	> 100	> 100	> 100	> 100	–	–
CCCCCC(=O)c1ccc2[nH]c3c(C)cc([N+](=O)[O-])c(C)c3c2c1	–	> 100 µM	> 100	–	> 100	–	> 100	–	> 100	> 100	–	–
CCOC(=O)Oc1cc2c(c(OC)c1OC)-c1ccc(SC)c(=O)cc1C(NC(=O)C(F)(F)F)CC2 (centres undefined)	–	0.523 µM and 1.03 µM	–	< 0.001	–	0.306	0.00191	< 0.001	–	> 100	0.0135	0.0447
O=[N+]([O-])/C(C(Cl)=C(Cl)Cl)=C1\NCCO1	–	> 100 µM	> 100	> 100	> 100	–	> 100	> 100	> 100	> 100	–	–
C/C(=N/NC(=S)Nc1ccccc1Cl)c1cccc(/C(C)=N\NC(=S)Nc2ccccc2Cl)n1	–	> 100 µM	> 100	> 100	> 100	> 100	> 100	> 100	> 100	> 100	–	–
CC(C)[C@@H]1CC[C@@H](C)C[C@H]1OC(=O)/C=C1/C2C=CC(O2)C1C(=O)O[C@@H]1C[C@H](C)CC[C@H]1C(C)C (some centres undefined)	–	> 100 µM	> 100	> 100	> 100	> 100	> 100	> 100	> 100	> 100	–	–
O=C(/C=C/c1cccc(Br)c1)c1cccs1	–	46 µM	31.6	25.5	42.1	–	30.7	22.3	–	31.1	–	–
C=C1C[C@@H](O)C[C@@]2(C)C[C@@H]3OC(=O)C(=C)[C@@H]3C[C@H]12	–	3.02 µM	28.6	–	14.4	28.1	11.7	–	21.5	19.6	–	–
COc1ccccc1-c1cc(=O)c2ccccc2[nH]1	–	> 100 µM	> 100	–	> 100	–	–	–	> 100	> 100	–	–
CN(C)c1ccc(/C=C2\N=C(NN)NC2=O)cc1	> 100	> 100 µM	> 100	> 100	> 100	> 100	–	> 100	> 100	> 100	–	–
COc1ccc(O[C@H](COCc2ccccc2)C[C@@H]2COC(C)(C)O2)cc1	> 100	> 100 µM	> 100	> 100	> 100	–	> 100	> 100	> 100	> 100	–	–
CCOc1ccc(/C=C(\Cl)c2ccc(OC)c(OC)c2)cc1	–	> 100 µM	–	–	> 100	> 100	> 100	–	–	> 100	–	–
O=C(Nc1nc2c(=O)[nH]cnc2s1)c1ccccc1	> 100	> 100 µM	–	> 100	> 100	> 100	> 100	–	> 100	> 100	–	–
O=C(Nc1c[nH]c(=O)[nH]c1=O)C(Cl)Cl	–	> 100 µM	> 100	> 100	–	> 100	> 100	> 100	> 100	> 100	–	–

Structure (SMILES)	TGI (BT-549 breast) [µM]	TGI (COLO 205 colon)	TGI (KM12 colon) [µM]	TGI (MDA-MB-435) [µM]	TGI (SF-268 CNS) [µM]	TGI (HOP-92 NSCLC) [µM]	TGI (SK-MEL-5 melanoma) [µM]	TGI (MDA-N) [µM]	TGI (LOX IMVI melanoma) [µM]	TGI (SN12C renal) [µM]	GI50 (SN12C renal) [µM]	GI50 (COLO 205 colon) [µM]
COC(=O)C(CCc1ccccc1I)C1=CCC2(CC1)OCCO2 (centres undefined)	–	> 100 µM	> 100	87.7	> 100	> 100	40	94.3	> 100	–	–	–
Cc1ccc(S(=O)(=O)/N=C(\NN)Nc2ccc(Cl)cc2)cc1	> 100	> 100 µM	> 100	–	–	> 100	> 100	> 100	> 100	> 100	–	–
COC(=O)C1=C(C)NC2(O)C=CC(=O)C3C(=O)N(c4ccccc4)C(=O)C132 (centres undefined)	> 100	> 100 µM	> 100	> 100	> 100	> 100	> 100	–	> 100	> 100	–	–
CCCCCC(=O)N[C@@H](c1ccccc1)C(O)C(=O)OC1C[C@@]2(O)C(OC(=O)c3ccccc3)C3[C@](C)(C(=O)[C@H](O)C(=C1C)C2(C)C)C(OC1OCC(O)C(O)C1O)C[C@H]1OC[C@@]31OC(C)=O (some centres undefined)	> 100	8.15 µM	> 38.3	1.78	> 100	> 100	> 100	1.03	–	> 100	–	–
O=c1[nH]nc(-c2ccccc2)n1/N=C/c1c[nH]c2ccccc12	–	> 100 µM	> 100	> 100	> 100	> 100	> 100	> 100	> 100	> 100	–	–
Cc1ccc(N=Nc2c(O)ccc3cc(S(=O)(=O)O)ccc23)c(C)c1	> 100	> 100 µM	> 100	> 100	> 100	> 100	> 100	> 100	–	> 100	–	–
O=C1O/C(=C(\Br)c2cccc3ccccc23)c2ccccc21	–	> 53.8 µM	> 55.2	–	> 55.7	> 56.9	51.1	–	> 100	47.2	–	–
CN1C(=S)C(c2ccccc2)Sc2ccccc21 (centres undefined)	> 100	> 100 µM	> 100	> 100	> 100	–	> 100	> 100	> 100	> 100	–	–
CCN(CC)CCCOC(=O)/C=C/c1c(C)[nH]c(=O)[nH]c1=O	–	> 625 µM	> 625	–	> 625	> 625	> 625	–	> 625	> 463	–	–
CC(C)SC(C)(NC(=O)C1C(C)(C)CCC1(C)C)C(=O)O (centres undefined)	–	> 100 µM	–	> 100	> 100	> 100	> 100	> 100	> 100	> 100	–	–
O=C(N=C1SCCN1C(=O)C(C(F)(F)F)C(F)(F)F)C(C(F)(F)F)C(F)(F)F	–	> 100 µM	–	> 100	–	> 100	> 100	–	> 100	–	–	–
C=CCOCn1cnc2c(N)ncnc21	–	> 100 µM	> 100	> 100	> 100	–	> 100	> 100	> 100	> 100	–	–
COC(=O)C(C)(N=Cc1ccccc1)c1ccccc1 (centres undefined)	–	> 100 µM	> 100	> 100	> 100	> 100	> 100	> 100	> 100	> 100	–	–
C=C1C(=O)OC2(C)C3CCC(C3)C12 (centres undefined)	–	48.4 µM	> 100	–	> 100	87.4	> 100	–	> 100	> 100	–	–
COC(=O)/C=C(\C)C(=O)N(C)c1ccccc1I	–	> 100 µM	> 100	> 100	> 100	> 100	> 100	> 100	> 100	> 100	–	–
COc1cc(C2SCC(=O)N2c2ccc(-n3c(-c4ccccc4)nc4ccccc4c3=O)cc2)ccc1O (centres undefined)	> 100	> 100 µM	> 100	> 100	> 100	68.9	> 100	> 100	> 100	–	–	–
Cc1cc(O)c2c(c1O)C(=O)C13C(=C2O)C(=O)C2C(O)C1C1C(O)C3C(=O)C3=C(O)c4c(O)cc(C)c(O)c4C(=O)C321 (centres undefined)	–	0.112 µM	10.7	–	0.458	–	0.364	–	1.46	–	–	–
COc1ccc(S(=O)(=O)O)cc1-n1nc(C(=O)Nc2ccccc2)n[n+]1-c1cc(S(=O)(=O)[O-])ccc1OC	–	> 100 µM	> 100	> 100	> 100	–	> 100	> 100	–	> 100	–	–
O=c1c(SSc2coc3cc(F)ccc3c2=O)coc2cc(F)ccc12	> 100	43.2 µM	28.5	36.3	> 100	–	46.2	34.3	8.21	36.6	–	–
CC12CCC(C(=O)O1)C(C)(C)O2 (centres undefined)	> 100	–	> 100	> 100	> 100	> 100	–	> 100	> 100	> 100	–	–
COc1ccc2cc1Oc1ccc(cc1)C(Sc1ccccc1)CCOC(=O)CC2 (centres undefined)	> 100	> 100 µM	> 100	> 100	> 100	–	> 100	> 100	> 100	> 100	–	–
O=C1/C(=C\c2cccc(Oc3ccccc3)c2)S(=O)(=O)C(c2ccccc2)N1c1ccccc1Cl (centres undefined)	> 100	33.5 µM	> 100	87	–	73.5	32	50.2	> 100	72	–	–
Cc1sc2nc(-c3cc([N+](=O)[O-])c(Cl)cc3Cl)c(/C=N/N=C(N)N)n2c1C	12	–	19.5	16.6	66.1	31.5	27.1	–	–	28.5	–	–
O=C(O)CCCCCOc1cccnc1/C=N/NC1=NCCN1	–	> 100 µM	> 100	–	> 100	> 100	> 100	–	> 100	> 100	–	–

Reference: PubChem BioAssay (NCI)
